Experimental data reported in the NIST ThermoML archive (doi:10.1016/j.jct.2006.10.008).
± gives the expanded uncertainty stated by the source.

Columns and labels:
[1] = excess molar enthalpy (molar enthalpy of mixing); xn = mol fraction of the nth substance listed; conditions: 298.15 K, 101 kPa, Liquid, Calvet calorimetry
[2] = xn = mol fraction of the nth substance listed; conditions: 298.15 K, 101 kPa, Liquid

With `CCOC=O` [ethyl methanoate] + ClCCCl the excess molar enthalpy ([1]; x1 = 0.0533) was -0.0075 ± 0.000263 kcal/mol, the excess molar enthalpy ([1]; x1 = 0.117) was -0.0173 ± 0.000335 kcal/mol and the excess molar enthalpy ([1]; x1 = 0.1872) was -0.0268 ± 0.000406 kcal/mol. For the same molecule, the excess molar enthalpy ([1]; x1 = 0.2551) was -0.0353 ± 0.000454 kcal/mol, the excess molar enthalpy ([1]; x1 = 0.3201) was -0.0432 ± 0.000526 kcal/mol and the excess molar enthalpy ([1]; x1 = 0.3798) was -0.05 ± 0.000574 kcal/mol. It also gave an excess molar enthalpy ([1]; x1 = 0.4359) of -0.0549 ± 0.000621 kcal/mol, an excess molar enthalpy ([1]; x1 = 0.4835) of -0.0584 ± 0.000645 kcal/mol and an excess molar enthalpy ([1]; x1 = 0.5094) of -0.0598 ± 0.000645 kcal/mol. For the same molecule, the excess molar enthalpy ([1]; x1 = 0.5591) was -0.0598 ± 0.000645 kcal/mol, the excess molar enthalpy ([1]; x1 = 0.6134) was -0.0574 ± 0.000621 kcal/mol and the excess molar enthalpy ([1]; x1 = 0.6735) was -0.0546 ± 0.000598 kcal/mol. The excess molar enthalpy ([1]; x1 = 0.7374) was -0.0485 ± 0.000574 kcal/mol, the excess molar enthalpy ([1]; x1 = 0.8) was -0.0397 ± 0.000502 kcal/mol and the excess molar enthalpy ([1]; x1 = 0.8714) was -0.0283 ± 0.000406 kcal/mol. The excess molar enthalpy ([1]; x1 = 0.9368) was -0.0146 ± 0.000311 kcal/mol, the mass density ([2]; x1 = 0.0571) was 1226.06 ± 0.78 kg/m3 and the mass density ([2]; x1 = 0.1212) was 1204.8 ± 0.73 kg/m3. For the same molecule, the mass density ([2]; x1 = 0.1793) was 1185.79 ± 0.69 kg/m3, the mass density ([2]; x1 = 0.2317) was 1168.78 ± 0.66 kg/m3 and the mass density ([2]; x1 = 0.2946) was 1148.35 ± 0.62 kg/m3. It also gave a mass density ([2]; x1 = 0.355) of 1128.9 ± 0.58 kg/m3, a mass density ([2]; x1 = 0.4144) of 1109.76 ± 0.54 kg/m3 and a mass density ([2]; x1 = 0.465) of 1093.66 ± 0.51 kg/m3. For the same molecule, the mass density ([2]; x1 = 0.5294) was 1073.24 ± 0.47 kg/m3, the mass density ([2]; x1 = 0.5889) was 1054.49 ± 0.43 kg/m3 and the mass density ([2]; x1 = 0.6485) was 1035.88 ± 0.39 kg/m3. For the same molecule, the mass density ([2]; x1 = 0.7065) was 1017.61 ± 0.36 kg/m3, the mass density ([2]; x1 = 0.7648) was 999.52 ± 0.32 kg/m3 and the mass density ([2]; x1 = 0.8239) was 981.06 ± 0.35 kg/m3. It also gave a mass density ([2]; x1 = 0.8823) of 962.96 ± 0.37 kg/m3 and a mass density ([2]; x1 = 0.9345) of 946.9 ± 0.39 kg/m3.
`CCCCCOC=O` [pentyl methanoate] + ClCCCl showed an excess molar enthalpy ([1]; x1 = 0.0406) of -0.0082 ± 0.000263 kcal/mol, an excess molar enthalpy ([1]; x1 = 0.0934) of -0.0198 ± 0.000359 kcal/mol and an excess molar enthalpy ([1]; x1 = 0.1501) of -0.0337 ± 0.000454 kcal/mol. The excess molar enthalpy ([1]; x1 = 0.2054) was -0.0459 ± 0.00055 kcal/mol, the excess molar enthalpy ([1]; x1 = 0.2613) was -0.0583 ± 0.000645 kcal/mol and the excess molar enthalpy ([1]; x1 = 0.3157) was -0.0674 ± 0.000717 kcal/mol. For the same molecule, the excess molar enthalpy ([1]; x1 = 0.3653) was -0.0765 ± 0.000789 kcal/mol, the excess molar enthalpy ([1]; x1 = 0.4153) was -0.08382 ± 0.000837 kcal/mol and the excess molar enthalpy ([1]; x1 = 0.4604) was -0.08886 ± 0.000884 kcal/mol. It also gave an excess molar enthalpy ([1]; x1 = 0.5014) of -0.09156 ± 0.000884 kcal/mol, an excess molar enthalpy ([1]; x1 = 0.5593) of -0.0925 ± 0.000908 kcal/mol and an excess molar enthalpy ([1]; x1 = 0.6338) of -0.08788 ± 0.00086 kcal/mol. The excess molar enthalpy ([1]; x1 = 0.7235) was -0.075 ± 0.000765 kcal/mol, the excess molar enthalpy ([1]; x1 = 0.8158) was -0.055 ± 0.000621 kcal/mol and the excess molar enthalpy ([1]; x1 = 0.9141) was -0.0302 ± 0.00043 kcal/mol. For the same molecule, the mass density ([2]; x1 = 0.0396) was 1221.77 ± 0.77 kg/m3, the mass density ([2]; x1 = 0.0779) was 1199.93 ± 0.72 kg/m3 and the mass density ([2]; x1 = 0.1181) was 1178.31 ± 0.68 kg/m3. The mass density ([2]; x1 = 0.1601) was 1156.97 ± 0.64 kg/m3, the mass density ([2]; x1 = 0.2047) was 1135.53 ± 0.59 kg/m3 and the mass density ([2]; x1 = 0.2505) was 1114.67 ± 0.55 kg/m3. It also gave a mass density ([2]; x1 = 0.3008) of 1093.1 ± 0.51 kg/m3, a mass density ([2]; x1 = 0.3529) of 1072.02 ± 0.47 kg/m3 and a mass density ([2]; x1 = 0.4074) of 1051.23 ± 0.42 kg/m3. It also gave a mass density ([2]; x1 = 0.4655) of 1030.4 ± 0.38 kg/m3, a mass density ([2]; x1 = 0.5288) of 1009.11 ± 0.34 kg/m3 and a mass density ([2]; x1 = 0.5948) of 988.32 ± 0.34 kg/m3. For the same molecule, the mass density ([2]; x1 = 0.6639) was 967.94 ± 0.36 kg/m3, the mass density ([2]; x1 = 0.7399) was 946.95 ± 0.39 kg/m3 and the mass density ([2]; x1 = 0.8201) was 926.19 ± 0.41 kg/m3. It also gave a mass density ([2]; x1 = 0.906) of 905.54 ± 0.44 kg/m3.
Molecule `CCCCOC=O` [butyl methanoate] + ClCCCl has an excess molar enthalpy ([1]; x1 = 0.0414) of -0.00954 ± 0.000287 kcal/mol, an excess molar enthalpy ([1]; x1 = 0.0923) of -0.0212 ± 0.000359 kcal/mol and an excess molar enthalpy ([1]; x1 = 0.1436) of -0.0343 ± 0.000454 kcal/mol. The excess molar enthalpy ([1]; x1 = 0.1984) was -0.0481 ± 0.000574 kcal/mol, the excess molar enthalpy ([1]; x1 = 0.2527) was -0.0619 ± 0.000669 kcal/mol and the excess molar enthalpy ([1]; x1 = 0.3048) was -0.075 ± 0.000765 kcal/mol. It also gave an excess molar enthalpy ([1]; x1 = 0.3561) of -0.08504 ± 0.000837 kcal/mol, an excess molar enthalpy ([1]; x1 = 0.4041) of -0.09405 ± 0.000908 kcal/mol and an excess molar enthalpy ([1]; x1 = 0.4493) of -0.1003 ± 0.000956 kcal/mol. It also gave an excess molar enthalpy ([1]; x1 = 0.4629) of -0.1006 ± 0.000956 kcal/mol, an excess molar enthalpy ([1]; x1 = 0.5202) of -0.1025 ± 0.00098 kcal/mol and an excess molar enthalpy ([1]; x1 = 0.5856) of -0.1005 ± 0.000956 kcal/mol. The excess molar enthalpy ([1]; x1 = 0.6594) was -0.09278 ± 0.000908 kcal/mol, the excess molar enthalpy ([1]; x1 = 0.7406) was -0.0785 ± 0.000789 kcal/mol and the excess molar enthalpy ([1]; x1 = 0.829) was -0.0569 ± 0.000645 kcal/mol. It also gave an excess molar enthalpy ([1]; x1 = 0.9165) of -0.0319 ± 0.000454 kcal/mol, a mass density ([2]; x1 = 0.0446) of 1222.63 ± 0.77 kg/m3 and a mass density ([2]; x1 = 0.087) of 1201.85 ± 0.73 kg/m3. For the same molecule, the mass density ([2]; x1 = 0.1314) was 1180.87 ± 0.68 kg/m3, the mass density ([2]; x1 = 0.1786) was 1159.63 ± 0.64 kg/m3 and the mass density ([2]; x1 = 0.2266) was 1138.77 ± 0.6 kg/m3. The mass density ([2]; x1 = 0.277) was 1117.89 ± 0.56 kg/m3, the mass density ([2]; x1 = 0.3837) was 1076.58 ± 0.48 kg/m3 and the mass density ([2]; x1 = 0.4403) was 1056.07 ± 0.43 kg/m3. It also gave a mass density ([2]; x1 = 0.5) of 1035.47 ± 0.39 kg/m3, a mass density ([2]; x1 = 0.5622) of 1014.9 ± 0.35 kg/m3 and a mass density ([2]; x1 = 0.6248) of 995.09 ± 0.33 kg/m3. It also gave a mass density ([2]; x1 = 0.6931) of 974.48 ± 0.35 kg/m3, a mass density ([2]; x1 = 0.7645) of 953.92 ± 0.38 kg/m3 and a mass density ([2]; x1 = 0.8389) of 933.51 ± 0.4 kg/m3.
`CCCOC=O` [propyl methanoate] + ClCCCCl gave an excess molar enthalpy ([1]; x1 = 0.0618) of -0.000717 ± 0.000191 kcal/mol, an excess molar enthalpy ([1]; x1 = 0.1342) of -0.00406 ± 0.000215 kcal/mol and an excess molar enthalpy ([1]; x1 = 0.2092) of -0.00951 ± 0.000263 kcal/mol. It also gave an excess molar enthalpy ([1]; x1 = 0.2838) of -0.0162 ± 0.000311 kcal/mol, an excess molar enthalpy ([1]; x1 = 0.3515) of -0.0231 ± 0.000359 kcal/mol and an excess molar enthalpy ([1]; x1 = 0.4148) of -0.0297 ± 0.00043 kcal/mol. It also gave an excess molar enthalpy ([1]; x1 = 0.4714) of -0.0358 ± 0.000454 kcal/mol, an excess molar enthalpy ([1]; x1 = 0.503) of -0.0397 ± 0.000502 kcal/mol and an excess molar enthalpy ([1]; x1 = 0.5539) of -0.0461 ± 0.00055 kcal/mol. The excess molar enthalpy ([1]; x1 = 0.6084) was -0.0502 ± 0.000574 kcal/mol, the excess molar enthalpy ([1]; x1 = 0.6696) was -0.0491 ± 0.000574 kcal/mol and the excess molar enthalpy ([1]; x1 = 0.7356) was -0.0441 ± 0.000526 kcal/mol. It also gave an excess molar enthalpy ([1]; x1 = 0.8024) of -0.0365 ± 0.000478 kcal/mol, an excess molar enthalpy ([1]; x1 = 0.8727) of -0.0258 ± 0.000382 kcal/mol and an excess molar enthalpy ([1]; x1 = 0.9394) of -0.0134 ± 0.000311 kcal/mol. The mass density ([2]; x1 = 0.0612) was 1161.75 ± 0.64 kg/m3, the mass density ([2]; x1 = 0.1204) was 1145.46 ± 0.61 kg/m3 and the mass density ([2]; x1 = 0.1775) was 1129.76 ± 0.58 kg/m3. It also gave a mass density ([2]; x1 = 0.2355) of 1113.91 ± 0.55 kg/m3, a mass density ([2]; x1 = 0.2944) of 1097.92 ± 0.52 kg/m3 and a mass density ([2]; x1 = 0.3527) of 1082.1 ± 0.49 kg/m3. The mass density ([2]; x1 = 0.4109) was 1066.46 ± 0.45 kg/m3, the mass density ([2]; x1 = 0.4695) was 1050.7 ± 0.42 kg/m3 and the mass density ([2]; x1 = 0.5286) was 1034.93 ± 0.39 kg/m3. It also gave a mass density ([2]; x1 = 0.5863) of 1019.65 ± 0.36 kg/m3, a mass density ([2]; x1 = 0.6459) of 1003.85 ± 0.33 kg/m3 and a mass density ([2]; x1 = 0.7044) of 988.35 ± 0.34 kg/m3. It also gave a mass density ([2]; x1 = 0.763) of 972.97 ± 0.36 kg/m3, a mass density ([2]; x1 = 0.8214) of 957.74 ± 0.37 kg/m3 and a mass density ([2]; x1 = 0.8796) of 942.43 ± 0.39 kg/m3. It also gave a mass density ([2]; x1 = 0.9386) of 927.1 ± 0.41 kg/m3.
